Patent US10993448B2, “Method for sanitizing fresh produce” (Dole Fresh Vegetables, Inc., priority 2014, dated 2021)
“And” between values parts separate entries of the source, which are not always exact repeats. Equal entries are not always repeated. Where two headings read alike, the source gives them in different places.

Legend:
[1] = test system: background microbial load (LB load); experiment: Log reduction analysis of background bacteria on inoculated Romaine lettuce; type: cell-based; conditions: after each dip, in log units, No treatment 4.81
E. coli O157:H7 = experiment: Suspension tests, E. coli; type: cell-based; parameters: key to Average log reduction: * indicates a sample in which no bacteria grew, so no fold reduction may be calculated; conditions: for Average log reduction: vs water control
Listeria monocytogenes [2] = experiment: Suspension tests, Listeria; type: cell-based; parameters: key to Average log reduction: * indicates a sample in which no bacteria grew, so no fold reduction may be calculated; conditions: for Average log reduction: vs water control
Listeria monocytogenes [3] = type: cell-based
Non-selective mix = experiment: Suspension tests, non-selective agar; type: cell-based, E. coli O157:H7, sv. Typhimurium, and Listeria monocytogenes; parameters: key to Average log reduction: * indicates a sample in which no bacteria grew, so no fold reduction may be calculated; conditions: for Average log reduction: vs water control
Salmonella = experiment: Suspension tests, Salmonella; type: cell-based, sv. Typhimurium; parameters: key to Average log reduction: * indicates a sample in which no bacteria grew, so no fold reduction may be calculated; conditions: for Average log reduction: vs water control
[4] = test system: microbial load (APC) of chopped Romaine lettuce; type: cell-based
[5] = test system: microbial load (Total Aerobic Plate Count) of raw, unwashed leafy vegetables; type: cell-based
[6] = test system: background microflora in wash water; experiment: Reduction of bacteria from wash water using ozone; type: cell-based
Description: Water containing high levels of background microflora was generated by dipping 200 g of lettuce in 2 L of water for 20 seconds. This lettuce was discarded and another 200 g of lettuce was dipped in the same water for 20 seconds. This was repeated for a total of 10 dips (referred to as Control in Table 34 below). Water with dissolved Ozone was then generated using a ClearWater Tech MSW245 Mobile Ozone Generator (San Luis Obispo, Calif.). The control microflora containing water was then mixed with this ‘Ozonated water’ at various mix levels ranging from 10 to 60% of the ozonated water with the control microflora containing water. First, 10% ozonated water was blended with 90% microflora containing water and after 20 seconds, 100 ml of water was removed into a sterile water sample bottle. This protocol was repeated in triplicate, as well as testing 20%, 30%, 40%, 50%, and 60% blends of ozonated water combined with the microflora containing water. In addition, 200 g of lettuce was added to the ozonated solution for 20 seconds and 100 ml of water was then collected in a sterile water sample bottle. This was also repeated in triplicate. The samples were serially diluted using PB as the diluent and plated on Total Plate Count agar. The plates were incubated for 48 hours at 30° C. for enumeration of the bacteria present following treatment.
The theoretical dilution reduction in Table 34 was calculated based on the number of cells that would be present if they were diluted in water or buffer (i.e. not a solution that would cause cell death or injury).

[O][Cl+][O-] [ClO2 dip, chlorine dioxide]
Avg. Bacterial Load ([1]; Treatment 1 (ClO2, Cl2, PAA)): 1.56 | Avg. Bacterial Load ([1]; Treatment 2 (ClO2, PAA, Cl2)): 2.41 | % bacteria killed (E. coli O157:H7; 30 seconds at 4° C.): 100% | Average (bacterial load) (E. coli O157:H7; 30 seconds at 4° C., Water 5.72 × 10^6): 0.00 | Average log reduction (E. coli O157:H7; 30 seconds at 4° C.): * | % bacteria killed (E. coli O157:H7; 30 seconds at 15° C.): 100% | Average (bacterial load) (E. coli O157:H7; 30 seconds at 15° C., Water 5.96 × 10^6): 0.00 | Average log reduction (E. coli O157:H7; 30 seconds at 15° C.): * | % bacteria killed (E. coli O157:H7; 30 seconds at 40° C.): 99.9993% | Average (bacterial load) (E. coli O157:H7; 30 seconds at 40° C., Water 3.22 × 10^6): 2.20 × 10^1 | Average log reduction (E. coli O157:H7; 30 seconds at 40° C.): 5.17 | % bacteria killed (E. coli O157:H7; 90 seconds at 4° C.): 100% | Average (bacterial load) (E. coli O157:H7; 90 seconds at 4° C., Water 3.96 × 10^6): 0.00 | Average log reduction (E. coli O157:H7; 90 seconds at 4° C.): * | % bacteria killed (E. coli O157:H7; 90 seconds at 15° C.): 100% | Average (bacterial load) (E. coli O157:H7; 90 seconds at 15° C., Water 5.74 × 10^6): 0.00 | Average log reduction (E. coli O157:H7; 90 seconds at 15° C.): * | % bacteria killed (E. coli O157:H7; 90 seconds at 40° C.): 99.1083% | Average (bacterial load) (E. coli O157:H7; 90 seconds at 40° C., Water 3.14 × 10^6): 2.80 × 10^4 | Average log reduction (E. coli O157:H7; 90 seconds at 40° C.): 2.05 | % bacteria killed (Listeria monocytogenes [2]; 30 seconds at 4° C.): 100% | Average (bacterial load) (Listeria monocytogenes [2]; 30 seconds at 4° C., Water 4.96 × 10^5): 0.00 | Average log reduction (Listeria monocytogenes [2]; 30 seconds at 4° C.): * | % bacteria killed (Listeria monocytogenes [2]; 30 seconds at 15° C.): 100% | Average (bacterial load) (Listeria monocytogenes [2]; 30 seconds at 15° C., Water 2.24 × 10^6): 0.00 | Average log reduction (Listeria monocytogenes [2]; 30 seconds at 15° C.): * | % bacteria killed (Listeria monocytogenes [2]; 30 seconds at 40° C.): 99.9999% | Average (bacterial load) (Listeria monocytogenes [2]; 30 seconds at 40° C., Water 2.32 × 10^6): 2.00 × 10^0 | Average log reduction (Listeria monocytogenes [2]; 30 seconds at 40° C.): 6.06 | % bacteria killed (Listeria monocytogenes [2]; 90 seconds at 4° C.): 100% | Average (bacterial load) (Listeria monocytogenes [2]; 90 seconds at 4° C., Water 2.06 × 10^5): 0.00 | Average log reduction (Listeria monocytogenes [2]; 90 seconds at 4° C.): * | % bacteria killed (Listeria monocytogenes [2]; 90 seconds at 15° C.): 100% | Average (bacterial load) (Listeria monocytogenes [2]; 90 seconds at 15° C., Water 7.14 × 10^4): 0.00 | Average log reduction (Listeria monocytogenes [2]; 90 seconds at 15° C.): * | % bacteria killed (Listeria monocytogenes [2]; 90 seconds at 40° C.): 96.080% | Average (bacterial load) (Listeria monocytogenes [2]; 90 seconds at 40° C., Water 2.50 × 10^6): 9.80 × 10^4 | Average log reduction (Listeria monocytogenes [2]; 90 seconds at 40° C.): 1.41 | Listeria Load (%) (Listeria monocytogenes [3]): 2.87% and 4.29% | % bacteria killed (Non-selective mix): 100.000% | Average (bacterial load) (Non-selective mix; 30 seconds at 4° C., Water 1.00 × 10^7): 0.00 | % bacteria killed (Non-selective mix; 30 seconds at 4° C., listed as 10 ppm chlorine dioxide): 100% | % bacteria killed (Non-selective mix; 30 seconds at 4° C., listed as Chlorine dioxide (10 ppm)): 100% | Average log reduction (Non-selective mix; 30 seconds at 4° C.): * | Average (bacterial load) (Non-selective mix; 30 seconds at 15° C., Water 8.46 × 10^6): 0.00 | % bacteria killed (Non-selective mix; 30 seconds at 15° C., listed as 10 ppm chlorine dioxide): 100% | % bacteria killed (Non-selective mix; 30 seconds at 15° C., listed as Chlorine dioxide (10 ppm)): 100% | Average log reduction (Non-selective mix; 30 seconds at 15° C.): * | Average (bacterial load) (Non-selective mix; 30 seconds at 40° C., Water 8.30 × 10^6): 1.00 × 10^2 | % bacteria killed (Non-selective mix; 30 seconds at 40° C., listed as 10 ppm chlorine dioxide): 99.9988% | % bacteria killed (Non-selective mix; 30 seconds at 40° C., listed as Chlorine dioxide (10 ppm)): 99.9988% | Average log reduction (Non-selective mix; 30 seconds at 40° C.): 4.92 | Average (bacterial load) (Non-selective mix; 90 seconds at 4° C., Water 6.22 × 10^6): 2.00 × 10^0 | % bacteria killed (Non-selective mix; 90 seconds at 4° C., listed as 10 ppm chlorine dioxide): 100% | % bacteria killed (Non-selective mix; 90 seconds at 4° C., listed as Chlorine dioxide (10 ppm)): 100% | Average log reduction (Non-selective mix; 90 seconds at 4° C.): 6.49 | Average (bacterial load) (Non-selective mix; 90 seconds at 15° C., Water 1.21 × 10^7): 2.00 × 10^1 | % bacteria killed (Non-selective mix; 90 seconds at 15° C., listed as 10 ppm chlorine dioxide): 99.9998% | % bacteria killed (Non-selective mix; 90 seconds at 15° C., listed as Chlorine dioxide (10 ppm)): 99.9998% | Average log reduction (Non-selective mix; 90 seconds at 15° C.): 5.78 | Average (bacterial load) (Non-selective mix; 90 seconds at 40° C., Water 9.76 × 10^6): 7.20 × 10^4 | % bacteria killed (Non-selective mix; 90 seconds at 40° C., listed as 10 ppm chlorine dioxide): 99.2623% | % bacteria killed (Non-selective mix; 90 seconds at 40° C., listed as Chlorine dioxide (10 ppm)): 99.2623% | Average log reduction (Non-selective mix; 90 seconds at 40° C.): 2.13 | % bacteria killed (Salmonella; 30 seconds at 4° C.): 100% | Average (bacterial load) (Salmonella; 30 seconds at 4° C., Water 5.32 × 10^6): 0.00 | Average log reduction (Salmonella; 30 seconds at 4° C.): * | % bacteria killed (Salmonella; 30 seconds at 15° C.): 100% | Average (bacterial load) (Salmonella; 30 seconds at 15° C., Water 2.70 × 10^6): 0.00 | Average log reduction (Salmonella; 30 seconds at 15° C.): * | % bacteria killed (Salmonella; 30 seconds at 40° C.): 99.9995% | Average (bacterial load) (Salmonella; 30 seconds at 40° C., Water 4.36 × 10^6): 2.20 × 10^1 | Average log reduction (Salmonella; 30 seconds at 40° C.): 5.30 | % bacteria killed (Salmonella; 90 seconds at 4° C.): 100% | Average (bacterial load) (Salmonella; 90 seconds at 4° C., Water 1.57 × 10^6): 0.00 | Average log reduction (Salmonella; 90 seconds at 4° C.): * | % bacteria killed (Salmonella; 90 seconds at 15° C.): 100% | Average (bacterial load) (Salmonella; 90 seconds at 15° C., Water 4.54 × 10^6): 0.00 | Average log reduction (Salmonella; 90 seconds at 15° C.): * | % bacteria killed (Salmonella; 90 seconds at 40° C.): 99.4879% | Average (bacterial load) (Salmonella; 90 seconds at 40° C., Water 7.42 × 10^6): 3.80 × 10^4 | Average log reduction (Salmonella; 90 seconds at 40° C.): 2.29

CC(=O)OO [PAA, peroxyacetic acid]
log unit reduction in microbial load after each individual step [4]: 2.4 log unit

OO [Treatment H2O2, hydrogen peroxide]
APC (CFU/g) [5]: 5,800 CFU/g

O=[O+][O-] [ozone solution, ozone]
Avg. CFU/ml ([6]; lettuce 20 sec in ozone solution, initial ozone 2.2 ppm, 20 sec in water 19266): 6900 CFU/ml | Avg. CFU/ml ([6]; ozone solution (initial 1.8 ppm) mixed with microflora containing water, Control after 10 dips in water 300000, listed as 10% ozone solution, After mixing 10% ozone solution): 300000 CFU/ml | Avg. CFU/ml ([6]; ozone solution (initial 1.8 ppm) mixed with microflora containing water, Control after 10 dips in water 300000, listed as 20% ozone solution, After mixing 20% ozone solution): 185333 CFU/ml | Avg. CFU/ml ([6]; ozone solution (initial 1.8 ppm) mixed with microflora containing water, Control after 10 dips in water 300000, listed as 30% ozone solution, After mixing 30% ozone solution): 174667 CFU/ml | Avg. CFU/ml ([6]; ozone solution (initial 1.8 ppm) mixed with microflora containing water, Control after 10 dips in water 300000, listed as 40% ozone solution, After mixing 40% ozone solution): 121667 CFU/ml | Avg. CFU/ml ([6]; ozone solution (initial 1.8 ppm) mixed with microflora containing water, Control after 10 dips in water 300000, listed as 50% ozone solution, After mixing 50% ozone solution): 87667 CFU/ml | Avg. CFU/ml ([6]; ozone solution (initial 1.8 ppm) mixed with microflora containing water, Control after 10 dips in water 300000, listed as 60% ozone solution, After mixing 60% ozone solution): 70333 CFU/ml
